Where two headings read alike, the source gives them in different places.
Legend:
[1] = test system: human gastric cancer cells SNU-16; assay: Tumor cell proliferation, CCK-8 kit; format: cell-based; details: SNU-16 cells, 72 hours
[2] = test system: small cell lung cancer cells DMS114; assay: Tumor cell proliferation, CCK-8 kit; format: cell-based; details: Homo sapiens, DMS-114, 72 hours
[3] = test system: small cell lung cancer cells NCI-H1581; assay: Tumor cell proliferation, CCK-8 kit; format: cell-based; details: Homo sapiens, 72 hours
[4] = test system: human bladder transplanted cell carcinoma cell SW780; assay: cells; details: SW780, 72 h, read-out: IC50(nM)/SW780
Excerpt: For the FGFR3 subtype, the human bladder transplanted cell carcinoma cell SW780 (purchased from the Chinese Academy of Sciences, Shanghai Institute of Life Sciences, Cell Resource Center) was used, and cultivated according to the corresponding conditions.
The experimental assay can be briefly described as follows: the tested compound was first dissolved in DMSO to prepare a stock solution, then it was subjected to gradient dilution with corresponding cell culture medium to prepare a test sample. The final concentration of the compound is in the range of 30 μM to 0.01 nM. The tumor cells in logarithmic growth phase were inoculated into 96-well cell culture plates at appropriate densities, after the cells were incubated overnight under the corresponding conditions, the tested compound samples were added and the cells were cultured for 72 hours. After completion of the culture, a suitable volume of CCK-8 test solution was added to each well and the cells were incubated at 37° C. for 1 to 4 hours. […] The percentage inhibition rate of the compound at each concentration point was calculated by comparing with the absorbance values of the control group, and then non-linear regression analysis was carried out using logarithmic concentration of the compounds-inhibition rates in the GraphPad Prism 5 software, to obtain the IC50 values for inhibiting cell proliferation of the compounds.

[5] = Pharmacokinetic tests on mice, intragastric, plasma LC/MS/MS; format: in vivo; details: ICR mice, 100 mg/kg
Experimental: ICR mice were used as the test animals, and the compound of Example 1 was administrated intragastrically to mice to determine the drug concentration in plasma at different points by LC/MS/MS method. The pharmacokinetic properties of the compound of the present invention were studied in mice.
The compound of Example 1 (50.12 mg) was weighed, added with 5.012 mL of 0.5% sodium carboxymethylcellulose (CMC-Na) (0.5% Tween-20, 0.9% BeOH), vortexed for 3 minutes until a homogeneous suspension was formed;
9 healthy adult ICR mice, after an overnight fast, were administrated intragastrically at a dosage of 100 mg/kg, at a volume of […].
Blood samples were taken from orbital vein (0.08 mL) at pre administration and at 15 minutes, 30 minutes, 1 hour, 2 hours, 4 hours, 8 hours, 12 hours, 24 hours post administration. The samples were stored in heparinized test tubes and centrifuged for 10 minutes at 5500r/min, The plasma were stored at −30° C., and the mice were fed after 4 hours of administration.
10 μL of sample was taken, 100 μl of acetonitrile solution of IS (5 ng·mL^−1 verapamil and 50 ng·mL^−1 glibenclamide were contained) was added, the mixture was vortexed for 10 minutes and centrifuged for 18 minutes at 3,700r/min, After that, 40 μL of supernatant was added with 120 μL of water and vortexed for 10 minutes, and an aliquot of 10 μL of the supernatant of the mixture was analyzed in a LC-MS/MS system.
The tested compounds were administrated intragastrically to determine the content of the tested compounds in plasma of mice at different time points by LC-MS/MS method.

[6] = test system: human gastric cancer cells KATOIII; assay: Tumor cell proliferation, CCK-8 kit; format: cell-based; details: KATO III, 72 hours
FGFR3 = FGFR3 (Homo sapiens (Human), UniProt P22607); assay: FGFR kinase activity, HTRF KinEASE-TK (TF-FRET); format: biochemical; details: recombinant human FGFR3, ATP at Km
FGFR4 = FGFR4 (Homo sapiens (Human), UniProt P22455); details: read-out: IC50(nM) FGFR4; recombinant human FGFR4, ATP at Km
Experimental: This assay used Cisbio's HTRF®KinEASE-TK tyrosine kinase kit (Cat. No. 62TK0PEB), through determining the degree of phosphorylation of the biotinylated polypeptide substrate, the determination was carried out by time-resolved fluorescence energy resonance transfer method (TF-FRET).
For detailed assay, please refer to the kit instructions, the experimental procedure was summarized as follows: the compound of the present invention was first dissolved in DMSO, the solution was subjected to gradient dilution with the buffer solution provided in the kit so that the range of the final concentration of the compound to be tested in the reaction system was 10 μM to 0.1 nM, the final concentration of DMSO was 0.1%. The concentration of the tested adenosine triphosphate (ATP) was the pre-determined Km value corresponding to the ATP of each FGFR subtype. […] Subsequently, an antiphosphorylated tyrosine antibody coupled with a compound containing europium-based element and streptavidin coupled with a modified allophycocyanin XL665 were added to the reaction and the mixture was incubated continuously for 1 hour at room temperature.

[7] = Pharmacokinetic tests on rats, intragastric, plasma LC/MS/MS; format: in vivo; details: SD rats; for AUC(0-inf) / half-life / Cmax / MRT: male, rat, plasma, po; for AUC(0-inf): read-out: Curve area AUC0-∞; for half-life: read-out: Half-life period T½ (converted); for Cmax: read-out: Plasma concentration Cmax; for MRT: read-out: Residence time MRT
Experimental: SD rats were used as the test animals, and the compounds of Examples 12 and 17 were administrated intragastrically to the rats to determine the drug concentration in plasma at different points by LC/MS/MS method. The pharmacokinetic properties of the compounds of the present invention in rats were studied.
The compound of Example 12 (3.5 mg) was weighed, dissolved in 2.2 mL of ethanol, vortexed for 1 minute and sonicated for 1 minute, after that, dissolved in 3.3 mL of PEG400, vortexed for 1 minute and sonicated for 1 minute, and then added with 5.5 mL of deionized water, vortexed for 1 minute. The final concentration of the solution was 0.3 mg/mL, and it was a colorless clear liquid (the pH of the final solution was about 7).
The compound of Example 17 (7.12 mg) was weighed and 7.12 mL of 0.5% sodium carboxymethylcellulose (CMC-Na) (0.5% Tween-20, 0.9% BeOH) was added, vortexed for 3 minutes until a homogeneous suspension was formed;
6 healthy adult SD male rats, after an overnight fast, were administrated intragastrically at the dosage of 3 mg/kg and 5 mg/kg, respectively.
Blood samples were taken from laryngeal vein (0.15 mL), at pre administration and at 15 minutes, 30 minutes, 1 hour, 2 hours, 4 hours, 8 hours, 12 hours, 24 hours, 36 hours and 48 hours post administration, and the samples were stored in heparinized test tubes, and centrifuged for 10 minutes at 5500 r/min. The plasma was stored at −30° C., and the rats were fed 4 hours after administration.
20 μL of sample was taken, 400 μl of acetonitrile solution of IS (5 ng·mL^−1 verapamil and 50 ng·mL^−1 glibenclamide were contained) was added, The mixture was vortexed for 1 minute, and then centrifuged for 8 minutes at 13,000r/min. After that, 70 μL of supernatant was added with 70 μL of water and vortexed for 10 minutes, and an aliquot of 10 μL of the supernatant of the mixture was analyzed in a LC-MS/MS system.
The tested compounds were administrated intragastrically to determine the content of the tested compounds in plasma of rats at different time points by LC-MS/MS method.

Chain of FGFR4 (P22455 22-802): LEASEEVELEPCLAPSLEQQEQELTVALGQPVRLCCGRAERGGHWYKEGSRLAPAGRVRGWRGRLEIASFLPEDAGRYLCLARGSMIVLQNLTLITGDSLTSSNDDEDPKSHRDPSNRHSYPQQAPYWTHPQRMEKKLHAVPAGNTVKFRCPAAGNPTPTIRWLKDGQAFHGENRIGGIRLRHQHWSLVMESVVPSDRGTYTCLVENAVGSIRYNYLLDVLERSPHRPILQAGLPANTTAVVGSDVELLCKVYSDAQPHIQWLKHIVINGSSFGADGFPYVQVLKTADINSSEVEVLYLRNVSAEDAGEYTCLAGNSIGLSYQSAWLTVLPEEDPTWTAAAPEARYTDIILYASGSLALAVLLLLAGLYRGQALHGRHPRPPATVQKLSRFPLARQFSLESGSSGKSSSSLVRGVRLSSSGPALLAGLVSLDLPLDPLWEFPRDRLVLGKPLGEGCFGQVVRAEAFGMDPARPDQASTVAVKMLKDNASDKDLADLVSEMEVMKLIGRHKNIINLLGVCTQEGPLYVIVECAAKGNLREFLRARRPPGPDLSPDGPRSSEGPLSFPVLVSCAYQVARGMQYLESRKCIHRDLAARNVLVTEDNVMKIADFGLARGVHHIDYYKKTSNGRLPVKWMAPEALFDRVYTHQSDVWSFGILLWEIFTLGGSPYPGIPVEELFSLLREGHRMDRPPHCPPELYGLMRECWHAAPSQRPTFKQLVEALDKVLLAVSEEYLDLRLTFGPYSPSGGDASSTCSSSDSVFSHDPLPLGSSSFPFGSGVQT
Chain of FGFR3 (P22607 23-806): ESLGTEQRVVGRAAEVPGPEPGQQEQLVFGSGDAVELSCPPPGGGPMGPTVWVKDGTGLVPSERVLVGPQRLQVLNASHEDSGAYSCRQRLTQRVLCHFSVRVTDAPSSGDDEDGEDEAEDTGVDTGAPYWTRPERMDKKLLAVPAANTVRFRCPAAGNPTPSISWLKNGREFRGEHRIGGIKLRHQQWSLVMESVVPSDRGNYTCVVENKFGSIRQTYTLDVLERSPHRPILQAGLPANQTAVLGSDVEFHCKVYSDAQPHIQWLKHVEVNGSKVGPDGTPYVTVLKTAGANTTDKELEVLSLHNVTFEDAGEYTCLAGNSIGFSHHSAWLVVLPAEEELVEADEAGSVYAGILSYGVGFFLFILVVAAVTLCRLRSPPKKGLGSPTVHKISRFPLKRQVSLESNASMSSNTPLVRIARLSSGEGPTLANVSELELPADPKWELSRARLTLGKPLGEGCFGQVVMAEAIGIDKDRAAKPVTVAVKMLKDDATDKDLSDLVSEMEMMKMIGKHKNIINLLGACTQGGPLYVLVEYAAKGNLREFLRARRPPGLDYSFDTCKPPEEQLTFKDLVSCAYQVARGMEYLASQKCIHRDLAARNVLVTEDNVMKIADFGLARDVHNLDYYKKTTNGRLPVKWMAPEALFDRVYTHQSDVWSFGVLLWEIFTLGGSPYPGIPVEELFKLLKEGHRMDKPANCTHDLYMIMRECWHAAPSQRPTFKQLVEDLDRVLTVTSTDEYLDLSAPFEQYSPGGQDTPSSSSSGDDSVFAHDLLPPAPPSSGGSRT

Row | Structure (SMILES) | IC50 [1] [nM] | IC50 [2] [nM] | IC50 [3] [nM] | IC50 [4] [nM] | IC50 [6] [nM] | further results
1 | Nc1c(C(=O)c2cc3ccccc3[nH]2)cnn1-c1ccc2[nH]c(C3CC3)nc2c1 [Example 1, (5-amino-1-(2-cyclopropyl-1H-benzo[d]imidazol-5-yl)-1H-pyrazol-4-yl)(1H-indol-2-yl)methanone] | 4 | 89 | 45 | 11 | 9 | F % (oral availability) [5]: 63%; pharmacokinetic properties (in words) [5]: good pharmacokinetic properties; AUC(0-t) ([5]; mouse, plasma, po, read-out: Curve area AUC0-t): 150000 ng·h/mL; Cmax ([5]; mouse, plasma, po, read-out: Plasma concentration Cmax): 17400 ng/mL
2 | COC(=O)c1nc2cc(-n3ncc(C(=O)c4cc5ccccc5[nH]4)c3N)ccc2[nH]1 [Example 7, Methyl 5-(5-amino-4-(1H-indole-2-carbonyl)-1H-pyrazol-1-yl)-1H-benzo[d]imidazole-2-carboxylate] | – | – | – | – | – | IC50 (FGFR3): > 100 nM; IC50 (FGFR4): > 10000 nM
3 | Nc1c(C(=O)c2cc3cc(F)ccc3[nH]2)cnn1-c1ccc2[nH]c(C3CC3)nc2c1 [Example 11, (5-amino-1-(2-cyclopropyl-1H-benzo[d]imidazol-5-yl)-1H-pyrazol-4-yl)(5-fluoro-1H-indol-2-yl)methanone] | – | – | 119 | – | 15 | –
4 | Nc1c(C(=O)c2cc3ccc(F)cc3[nH]2)cnn1-c1ccc2[nH]c(C3CC3)nc2c1 [Example 12, (5-Amino-1-(2-cyclopropyl-1H-benzo[d]imidazol-5-yl)-1H-pyrazol-4-yl)(6-fluoro-1H-indol-2-yl)methanone] | 5 | 150 | 78 | – | 1.1 | pharmacokinetic properties (in words) [7]: good pharmacokinetic properties; AUC(0-inf) ([7]; 3 mg/kg): 80400 ± 24600 ng·h/mL; half-life ([7]; 3 mg/kg): 5.38 ± 0.05 h; Cmax ([7]; 3 mg/kg): 5230 ± 1510 ng/mL; MRT ([7]; 3 mg/kg): 8.18 ± 0.19 h
5 | CN1CC=C(c2ccc3cc(C(=O)c4cnn(-c5ccc6[nH]c(C7CC7)nc6c5)c4N)[nH]c3c2)CC1 [Example 14, (5-Amino-1-(2-cyclopropyl-1H-benzo[d]imidazol-5-yl)-1H-pyrazol-4-yl)(6-(1-methyl-1,2,3,6-tetrahydropyrid-4-yl)-1H-indol-2-yl)methanone] | 5.6 | 43 | 20 | – | 4.5 | –
6 | CCn1cc(-c2ccc3cc(C(=O)c4cnn(-c5ccc6[nH]c(C7CC7)nc6c5)c4N)[nH]c3c2)cn1 [Example 16, (5-Amino-1-(2-cyclopropyl-1H-benzo[d]imidazol-5-yl)-1H-pyrazol-4-yl)(6-(1-ethyl-1H-pyrazol-4-yl)-1H-indol-2-yl)methanone] | – | 56 | 40 | 56 | 11 | –
7 | N#Cc1ccc2cc(C(=O)c3cnn(-c4ccc5[nH]c(C6CC6)nc5c4)c3N)[nH]c2c1 [Example 17, 2-(5-Amino-1-(2-cyclopropyl-1H-benzo[d]imidazol-5-yl)-1H-pyrazole-4-carbonyl)-1H-indole-6-carbonitrile] | – | 129 | 61 | 106 | 9.8 | pharmacokinetic properties (in words) [7]: good pharmacokinetic properties; AUC(0-inf) ([7]; 5 mg/kg): 10300 ± 3490 ng·h/mL; half-life ([7]; 5 mg/kg): 6.6 ± 3.2 h; Cmax ([7]; 5 mg/kg): 1040 ± 271 ng/mL; MRT ([7]; 5 mg/kg): 9.4 ± 5.2 h

From patent US10214515B2, “Substituted pyrazoles as inhibitors of fibroblast growth factor receptor” (Zhejiang Hisun Pharmaceutical Co., Ltd., priority 2015, dated 2019)
